Literature values in patent publication US20210198302A1, “OLIGOSACCHARIDE COMPOSITIONS AND METHODS OF USE THEREOF FOR REDUCING AMMONIA LEVELS” (Kaleido Biosciences, Inc., priority 2018, published 2021).

Test system: OHE patients
Details: administered in combination with lactulose

In the case of `CO[C@H]1/C=C/O[C@@]2(C)Oc3c(C)c(O)c4c(O)c(c5c(nc6cc(C)ccn65)c4c3C2=O)NC(=O)/C(C)=C\C=C\[C@H](C)[C@H](O)[C@@H](C)[C@@H](O)[C@@H](C)[C@H](OC(C)=O)[C@@H]1C` [rifaximin], the “reduction of episodes of OHE” value is given as “approximately 50%”.
